In ChEMBL document CHEMBL5506036, “Exploring the Structural Attributes of Yoda1 for the Development of New-Generation Piezo1 Agonist Yaddle1 as a Vaccine Adjuvant Targeting Optimal T Cell Activation” (J Med Chem, 2024):
In brackets after ≈: the same amount, converted by molar mass. Activity calls are given as the source filed them. The rule behind the calls is not given here.

What was measured:
[1] = target: T1, Piezo-type mechanosensitive ion channel component 1 (Homo sapiens, UniProt Q92508); assay: Agonist activity at human PIEZO1 overexpressing HEK293-A cells co-expressing mCherry-piezo1 assessed as fold change in calcium influx at 15 uM by fluo-3 based real-time flow cytometric analysis; format: cell-based
[2] = target: T1, Piezo-type mechanosensitive ion channel component 1; assay: Agonist activity at human PIEZO1 overexpressing HEK293-A cells co-expressing mCherry-piezo1 assessed as fold change in calcium influx at 20 uM by fluo-3 based real-time flow cytometric analysis; format: cell-based
[3] = Kinetic aqueous solubility of compound in PBS at pH 7.4 measured after 24 hrs by HPLC-UV analysis; format: physicochemical; conditions: read-out: Kinetic_solubility
[4] = target: T1, Piezo-type mechanosensitive ion channel component 1; assay: Agonist activity at human PIEZO1 overexpressing HEK293-A cells co-expressing mCherry-piezo1 assessed as fold change in calcium influx at 0.1 uM by fluo-3 based real-time flow cytometric analysis; format: cell-based
[5] = target: T1, Piezo-type mechanosensitive ion channel component 1; assay: Agonist activity at human PIEZO1 overexpressing HEK293-A cells co-expressing mCherry-piezo1 assessed as fold change in calcium influx at 0.5 uM by fluo-3 based real-time flow cytometric analysis; format: cell-based
[6] = target: T1, Piezo-type mechanosensitive ion channel component 1; assay: Agonist activity at human PIEZO1 overexpressing HEK293-A cells co-expressing mCherry-piezo1 assessed as fold change in calcium influx at 1 uM by fluo-3 based real-time flow cytometric analysis; format: cell-based
[7] = target: T1, Piezo-type mechanosensitive ion channel component 1; assay: Agonist activity at human PIEZO1 overexpressing HEK293-A cells co-expressing mCherry-piezo1 assessed as fold change in calcium influx at 5 uM by fluo-3 based real-time flow cytometric analysis; format: cell-based
[8] = target: T1, Piezo-type mechanosensitive ion channel component 1; assay: Agonist activity at human PIEZO1 overexpressing HEK293-A cells co-expressing mCherry-piezo1 assessed as fold change in calcium influx at 10 uM by fluo-3 based real-time flow cytometric analysis; format: cell-based
[9] = target: T1, Piezo-type mechanosensitive ion channel component 1; assay: Agonist activity at human PIEZO1 overexpressing HEK293-A cells co-expressing mCherry-piezo1 assessed as induction of calcium influx by fluo-3 based real-time flow cytometric analysis; format: cell-based
[10] = target: T1, Piezo-type mechanosensitive ion channel component 1; assay: Agonist activity at human PIEZO1 overexpressing HEK293-A cells co-expressing mCherry-piezo1 assessed as induction of calcium influx by measuring maximum efficacy in fold change by fluo-3 based real-time flow cytometric analysis; format: cell-based; conditions: filed as agonist
[11] = Cytotoxicity against human PBMC cells assessed as decrease in cell viability at 0.1 to 5 uM incubated for 6 hrs by MTT assay; format: toxicity, cell-based; conditions: dose 0.1-5 µM
[12] = Cytotoxicity against human PBMC cells assessed as decrease in cell viability at 20 uM incubated for 24 hrs by MTT assay; format: toxicity, cell-based
[13] = target: T1, Piezo-type mechanosensitive ion channel component 1; assay: Agonist activity at PIEZO1 in human CD4+ T cell assessed as fold increase in intracellular calcium influx measured for 30 mins by flow cytometry analysis; format: cell-based
[14] = target: T1, Piezo-type mechanosensitive ion channel component 1; assay: Agonist activity at human PIEZO1 overexpressing HEK293-A cells co-expressing mCherry-piezo1 assessed as fold change in calcium influx at 25 uM by fluo-3 based real-time flow cytometric analysis; format: cell-based
[15] = target: T1, Piezo-type mechanosensitive ion channel component 1; assay: Agonist activity at PIEZO1 in human CD4+ T cell assessed as intracellular calcium influx measured for 30 mins by flow cytometry analysis; format: cell-based

T1 sequence (Q92508 whole entry): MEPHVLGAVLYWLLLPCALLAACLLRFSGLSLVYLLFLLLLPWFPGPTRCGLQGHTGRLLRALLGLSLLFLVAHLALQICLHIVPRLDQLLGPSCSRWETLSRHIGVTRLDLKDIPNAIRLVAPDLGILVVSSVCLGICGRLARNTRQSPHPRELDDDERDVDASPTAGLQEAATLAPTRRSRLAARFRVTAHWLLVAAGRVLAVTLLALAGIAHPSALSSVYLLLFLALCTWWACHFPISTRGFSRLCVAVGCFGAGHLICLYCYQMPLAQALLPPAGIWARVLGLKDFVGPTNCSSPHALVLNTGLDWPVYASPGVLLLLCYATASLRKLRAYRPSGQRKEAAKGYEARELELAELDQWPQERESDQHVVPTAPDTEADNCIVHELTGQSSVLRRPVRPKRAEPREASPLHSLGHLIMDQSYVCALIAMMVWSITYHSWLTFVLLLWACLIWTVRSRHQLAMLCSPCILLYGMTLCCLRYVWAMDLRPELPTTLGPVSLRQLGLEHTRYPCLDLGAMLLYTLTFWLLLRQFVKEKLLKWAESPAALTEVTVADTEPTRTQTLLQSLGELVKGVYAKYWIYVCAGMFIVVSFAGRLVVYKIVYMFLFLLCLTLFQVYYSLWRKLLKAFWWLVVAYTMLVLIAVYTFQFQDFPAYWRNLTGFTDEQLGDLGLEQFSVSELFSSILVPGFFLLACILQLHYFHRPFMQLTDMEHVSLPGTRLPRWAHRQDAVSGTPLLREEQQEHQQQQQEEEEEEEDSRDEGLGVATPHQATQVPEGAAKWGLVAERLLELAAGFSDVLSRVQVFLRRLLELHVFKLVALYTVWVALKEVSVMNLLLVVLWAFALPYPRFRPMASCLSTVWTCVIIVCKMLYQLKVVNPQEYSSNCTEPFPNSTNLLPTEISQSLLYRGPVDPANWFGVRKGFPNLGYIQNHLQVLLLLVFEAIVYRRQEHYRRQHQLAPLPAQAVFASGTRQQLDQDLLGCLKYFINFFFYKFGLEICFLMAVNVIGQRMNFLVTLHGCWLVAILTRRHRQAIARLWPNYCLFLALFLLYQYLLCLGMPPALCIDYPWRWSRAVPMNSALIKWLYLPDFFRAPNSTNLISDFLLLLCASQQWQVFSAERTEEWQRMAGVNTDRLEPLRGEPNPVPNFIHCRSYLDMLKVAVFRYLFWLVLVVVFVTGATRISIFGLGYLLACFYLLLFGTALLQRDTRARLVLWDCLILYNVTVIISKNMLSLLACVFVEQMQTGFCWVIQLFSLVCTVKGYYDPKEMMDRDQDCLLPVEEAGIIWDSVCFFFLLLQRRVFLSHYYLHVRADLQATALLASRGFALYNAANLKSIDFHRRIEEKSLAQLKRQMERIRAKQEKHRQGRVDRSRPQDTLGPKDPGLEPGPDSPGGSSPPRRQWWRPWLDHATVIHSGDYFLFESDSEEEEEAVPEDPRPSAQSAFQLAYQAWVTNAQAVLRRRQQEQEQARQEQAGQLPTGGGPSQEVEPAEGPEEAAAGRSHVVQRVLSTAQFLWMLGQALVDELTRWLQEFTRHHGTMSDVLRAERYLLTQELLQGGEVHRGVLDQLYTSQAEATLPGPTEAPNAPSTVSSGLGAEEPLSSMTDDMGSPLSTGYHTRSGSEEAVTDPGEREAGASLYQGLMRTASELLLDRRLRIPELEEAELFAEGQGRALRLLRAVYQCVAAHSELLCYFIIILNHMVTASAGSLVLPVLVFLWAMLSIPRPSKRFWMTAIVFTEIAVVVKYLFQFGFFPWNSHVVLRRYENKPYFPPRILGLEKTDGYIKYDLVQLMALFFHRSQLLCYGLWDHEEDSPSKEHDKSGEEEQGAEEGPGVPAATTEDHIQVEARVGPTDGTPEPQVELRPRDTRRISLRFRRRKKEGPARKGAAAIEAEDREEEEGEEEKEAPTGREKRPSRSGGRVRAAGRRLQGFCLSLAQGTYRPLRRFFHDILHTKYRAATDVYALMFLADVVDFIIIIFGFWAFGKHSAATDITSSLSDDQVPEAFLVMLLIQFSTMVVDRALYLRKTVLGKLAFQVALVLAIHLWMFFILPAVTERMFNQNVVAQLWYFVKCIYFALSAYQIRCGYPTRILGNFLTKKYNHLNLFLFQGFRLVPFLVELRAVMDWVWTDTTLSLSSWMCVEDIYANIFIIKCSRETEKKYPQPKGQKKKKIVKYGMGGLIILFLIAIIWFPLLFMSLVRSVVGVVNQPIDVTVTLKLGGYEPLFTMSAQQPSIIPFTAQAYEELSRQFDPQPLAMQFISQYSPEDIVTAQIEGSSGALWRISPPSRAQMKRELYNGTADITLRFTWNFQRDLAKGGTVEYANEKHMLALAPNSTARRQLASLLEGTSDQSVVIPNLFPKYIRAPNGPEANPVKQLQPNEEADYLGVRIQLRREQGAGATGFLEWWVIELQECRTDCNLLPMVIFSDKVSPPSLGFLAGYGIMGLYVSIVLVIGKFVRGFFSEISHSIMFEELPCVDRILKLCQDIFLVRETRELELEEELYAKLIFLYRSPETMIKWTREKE

Row | fold change (FC) [1] | fold change (FC) [2] | solubility kinetic at 24 h [3] | fold change (FC) [4] | fold change (FC) [5] | fold change (FC) [6] | fold change (FC) [7] | fold change (FC) [8] | EC50 [9] | fold change (FC) [10] | fold change (FC) [13] | Activity [14] | Activity [15] | Compound | Activity [11] | Activity [12]
1 | < 1.2 | < 1.2 |  |  |  |  |  |  |  |  |  |  |  | Fc1ccccc1CSc1nnc(-c2cnccn2)o1 |  | 
2 |  | < 1.2 |  | < 1.2 |  |  |  |  |  |  |  |  |  | Fc1cccc(F)c1CSc1nnc(-c2cnccn2)o1 |  | 
3 | > 1.2 | > 1.2 |  | < 1.2 | > 1.2 | > 1.2 | > 1.2 | > 1.2 | 550 nM | 1.7 |  |  |  | FC(F)(F)c1ccc(Cl)cc1CSc1nnc(-c2cnccn2)o1 |  | 
4 | > 1.2 | > 1.2 | 26.7 µM (≈ 9.96 µg/mL) | > 1.2 | > 1.2 | > 1.2 | > 1.2 | > 1.2 | 400 nM | 2.6 | > 2 |  |  | FC(F)(F)c1cccc(Cl)c1CSc1nnc(-c2cnccn2)o1 | Non-Toxic | Non-Toxic
5 | > 1.2 | > 1.2 |  | < 1.2 | < 1.2 | > 1.2 | > 1.2 | > 1.2 | 1000 nM | 1.68 |  |  | inactive | FC(F)(F)c1ccc(C(F)(F)F)c(CSc2nnc(-c3cnccn3)o2)c1 |  | 
6 | < 1.2 | > 1.2 |  | < 1.2 | > 1.2 | > 1.2 | > 1.2 | > 1.2 | 1040 nM | 2.9 | > 2 |  |  | Clc1cccc(Br)c1CSc1nnc(-c2cnccn2)o1 |  | 
7 | < 1.2 | < 1.2 |  |  |  |  |  |  |  |  |  |  |  | c1ccc(CSc2nnc(-c3cnccn3)o2)cc1 |  | 
8 | < 1.2 | < 1.2 |  |  |  |  |  |  |  |  |  |  |  | Cc1ccccc1CSc1nnc(-c2cnccn2)o1 |  | 
9 | > 1.2 | > 1.2 |  | < 1.2 | > 1.2 | > 1.2 | > 1.2 | > 1.2 | 880 nM | 2.3 |  |  |  | FC(F)(F)c1ccc(Cl)c(CSc2nnc(-c3cnccn3)o2)c1 |  | 
10 | > 1.2 | > 1.2 |  | > 1.2 | > 1.2 | > 1.2 | > 1.2 | > 1.2 | 460 nM | 2.7 |  |  |  | FC(F)(F)c1cccc(Br)c1CSc1nnc(-c2cnccn2)o1 |  | 

The next lines start with the compound.

Row | Compound | fold change (FC) [1] | fold change (FC) [2] | solubility kinetic at 24 h [3] | fold change (FC) [4] | fold change (FC) [5] | fold change (FC) [6] | fold change (FC) [7] | fold change (FC) [8] | EC50 [9] | fold change (FC) [10] | fold change (FC) [13] | Activity [14] | Activity [15] | Activity [11] | Activity [12]
11 | O=C([O-])Cc1ccccc1Nc1c(Cl)cccc1Cl.[Na+] [DICLOFENAC SODIUM] |  |  | 205 µM |  |  |  |  |  |  |  |  |  |  |  | 
12 | O=[N+]([O-])c1ccccc1CSc1nnc(-c2cnccn2)o1 | < 1.2 | < 1.2 |  |  |  |  |  |  |  |  |  |  |  |  | 
13 | Clc1ccccc1CSc1nnc(-c2cnccn2)[nH]1 | < 1.2 | < 1.2 |  |  |  |  |  |  |  |  |  | inactive |  |  | 
14 | Clc1cccc(Cl)c1CNc1nnc(-c2cnccn2)o1 | < 1.2 | < 1.2 |  | < 1.2 | < 1.2 | < 1.2 | < 1.2 | < 1.2 |  |  |  |  |  |  | 
15 | Clc1cccc(Cl)c1CSc1nnc(-c2ccc[nH]2)o1 | < 1.2 | < 1.2 |  | < 1.2 | < 1.2 | < 1.2 | < 1.2 | < 1.2 |  |  |  |  |  |  | 
16 | O=c1oc(-c2cnccn2)nn1Cc1ccccc1Cl | < 1.2 | < 1.2 |  | < 1.2 | < 1.2 | < 1.2 | < 1.2 | < 1.2 |  |  |  |  |  |  | 
17 | Clc1cccc(Cl)c1CSc1nnc(-c2cnccn2)s1 | > 1.2 | > 1.2 | 1.22 µM (≈ 0.433 µg/mL) | < 1.2 | > 1.2 | > 1.2 | > 1.2 | > 1.2 | 500 nM | 2.4 |  |  |  |  | 
